The record followed here is ChEMBL document CHEMBL4406914, “Impact of Minor Structural Modifications on Properties of a Series of mTOR Inhibitors” (ACS Med Chem Lett, 2019).

≈ marks a conversion by molar mass, not a printed value. Calls of active or inactive are those of the source. No cut-off for these calls is given here.

The target of series [1] is Serine/threonine-protein kinase mTOR (Homo sapiens, UniProt P42345). As to the kind of experiment: Inhibition of human recombinant GST-tagged mTOR catalytic domain (1360 to 2549 residues) expressed in baculovirus expression system using GFP-4E-BP1 peptide as substrate incubated for 1 hr by LanthaScreen assay.
In the next series the target is mTORC1 (Homo sapiens, UniProt P42345). Description: Inhibition of mTORC1 in human A431 cells assessed as S6RP phosphorylation incubated for 3 hrs by HTRF assay. It counts as cell-based.
A short description of series [2]: Kinetic aqueous solubility of compound in phosphate buffer at pH 7.4 at 100 uM at 20 degree C shaken for 24 hrs by HPLC analysis. The conditions noted are these: read-out: Kinetic_solubility. It counts as physicochemical.
Series [3] has as its target T1, Phosphatidylinositol 3-kinase C2 domain-containing subunit gamma (Homo sapiens) (UniProt O75747).
T1 sequence (whole entry): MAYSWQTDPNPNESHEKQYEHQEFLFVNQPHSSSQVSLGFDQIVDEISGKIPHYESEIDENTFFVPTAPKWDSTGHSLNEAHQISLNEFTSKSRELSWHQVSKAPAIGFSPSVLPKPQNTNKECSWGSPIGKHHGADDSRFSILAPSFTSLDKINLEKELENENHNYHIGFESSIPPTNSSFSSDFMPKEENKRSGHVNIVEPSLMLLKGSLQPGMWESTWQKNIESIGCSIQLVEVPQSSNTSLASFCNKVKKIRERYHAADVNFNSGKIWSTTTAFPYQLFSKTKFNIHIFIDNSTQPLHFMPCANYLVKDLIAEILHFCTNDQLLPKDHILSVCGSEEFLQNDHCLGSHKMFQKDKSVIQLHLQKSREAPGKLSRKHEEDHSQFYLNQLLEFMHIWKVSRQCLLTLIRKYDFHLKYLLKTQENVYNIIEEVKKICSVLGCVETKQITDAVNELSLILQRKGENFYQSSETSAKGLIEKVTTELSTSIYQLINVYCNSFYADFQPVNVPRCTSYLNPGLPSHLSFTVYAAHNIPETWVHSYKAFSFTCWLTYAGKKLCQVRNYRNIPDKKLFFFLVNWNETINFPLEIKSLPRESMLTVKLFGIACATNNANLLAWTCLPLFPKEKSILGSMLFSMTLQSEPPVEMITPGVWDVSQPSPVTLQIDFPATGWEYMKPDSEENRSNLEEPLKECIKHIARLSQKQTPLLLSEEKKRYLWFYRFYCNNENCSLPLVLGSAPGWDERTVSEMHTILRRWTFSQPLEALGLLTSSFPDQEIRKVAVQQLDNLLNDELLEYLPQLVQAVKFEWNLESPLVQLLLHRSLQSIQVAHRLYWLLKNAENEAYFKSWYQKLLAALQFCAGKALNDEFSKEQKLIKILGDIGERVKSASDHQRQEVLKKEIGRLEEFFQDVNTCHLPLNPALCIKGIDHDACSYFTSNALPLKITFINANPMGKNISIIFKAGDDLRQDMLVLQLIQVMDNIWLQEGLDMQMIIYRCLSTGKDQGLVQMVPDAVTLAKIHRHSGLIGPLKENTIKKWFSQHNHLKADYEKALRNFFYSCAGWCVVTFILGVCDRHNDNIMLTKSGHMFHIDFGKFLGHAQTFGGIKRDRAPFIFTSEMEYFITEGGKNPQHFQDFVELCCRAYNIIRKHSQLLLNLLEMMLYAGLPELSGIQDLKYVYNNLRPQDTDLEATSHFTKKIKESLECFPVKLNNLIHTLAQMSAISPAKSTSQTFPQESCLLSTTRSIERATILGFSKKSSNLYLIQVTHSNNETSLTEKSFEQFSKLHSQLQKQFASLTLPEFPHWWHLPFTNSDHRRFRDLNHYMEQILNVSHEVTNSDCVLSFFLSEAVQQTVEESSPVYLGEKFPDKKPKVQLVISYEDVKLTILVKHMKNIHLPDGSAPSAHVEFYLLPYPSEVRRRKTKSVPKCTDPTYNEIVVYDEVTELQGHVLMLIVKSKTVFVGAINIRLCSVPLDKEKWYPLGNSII
As to the kind of experiment: Inhibition of wild-type human partial length PIK3C2G (M1 to I1446 residues) expressed in mammalian expression system at 10 uM by Kinomescan method.

Series [4] is described as follows: Hepatic intrinsic clearance in human Hepatocytes assessed per at 1 uM measured upto 90 mins by LC-MS/MS analysis. It counts as ADME, cell-based, Hepatocyte. The conditions noted are these: 1.5 h.
In the next series the target is mTORC2 (Homo sapiens, UniProt P42345). Description: Inhibition of mTORC2 in human A431 cells assessed as AKT phosphorylation at S473 residue incubated for 3 hrs by HTRF assay. It counts as cell-based.
Series [5] can be described thus: Metabolic stability in human liver microsomes assessed as parent compound remaining at 1 uM measured at 15 mins in presence of phase 1 metabolism cofactors by LC-MS/MS analysis. Format: ADME, Microsome. The settings on record: read-out: Stability. Background: Liver microsomes are a subcellular fraction often used to study metabolism.
Series [6] concerns the target Phosphatidylinositol 4-phosphate 3-kinase C2 domain-containing subunit beta (Homo sapiens) (UniProt O00750). As to the kind of experiment: Inhibition of wild-type human partial length PIK3C2B (M1 to L1634 residues) expressed in mammalian expression system at 10 uM by Kinomescan method.
The target of series [7] is T2, Phosphatidylinositol 4,5-bisphosphate 3-kinase catalytic subunit delta isoform (Homo sapiens) (UniProt O00329).
T2 sequence (whole entry): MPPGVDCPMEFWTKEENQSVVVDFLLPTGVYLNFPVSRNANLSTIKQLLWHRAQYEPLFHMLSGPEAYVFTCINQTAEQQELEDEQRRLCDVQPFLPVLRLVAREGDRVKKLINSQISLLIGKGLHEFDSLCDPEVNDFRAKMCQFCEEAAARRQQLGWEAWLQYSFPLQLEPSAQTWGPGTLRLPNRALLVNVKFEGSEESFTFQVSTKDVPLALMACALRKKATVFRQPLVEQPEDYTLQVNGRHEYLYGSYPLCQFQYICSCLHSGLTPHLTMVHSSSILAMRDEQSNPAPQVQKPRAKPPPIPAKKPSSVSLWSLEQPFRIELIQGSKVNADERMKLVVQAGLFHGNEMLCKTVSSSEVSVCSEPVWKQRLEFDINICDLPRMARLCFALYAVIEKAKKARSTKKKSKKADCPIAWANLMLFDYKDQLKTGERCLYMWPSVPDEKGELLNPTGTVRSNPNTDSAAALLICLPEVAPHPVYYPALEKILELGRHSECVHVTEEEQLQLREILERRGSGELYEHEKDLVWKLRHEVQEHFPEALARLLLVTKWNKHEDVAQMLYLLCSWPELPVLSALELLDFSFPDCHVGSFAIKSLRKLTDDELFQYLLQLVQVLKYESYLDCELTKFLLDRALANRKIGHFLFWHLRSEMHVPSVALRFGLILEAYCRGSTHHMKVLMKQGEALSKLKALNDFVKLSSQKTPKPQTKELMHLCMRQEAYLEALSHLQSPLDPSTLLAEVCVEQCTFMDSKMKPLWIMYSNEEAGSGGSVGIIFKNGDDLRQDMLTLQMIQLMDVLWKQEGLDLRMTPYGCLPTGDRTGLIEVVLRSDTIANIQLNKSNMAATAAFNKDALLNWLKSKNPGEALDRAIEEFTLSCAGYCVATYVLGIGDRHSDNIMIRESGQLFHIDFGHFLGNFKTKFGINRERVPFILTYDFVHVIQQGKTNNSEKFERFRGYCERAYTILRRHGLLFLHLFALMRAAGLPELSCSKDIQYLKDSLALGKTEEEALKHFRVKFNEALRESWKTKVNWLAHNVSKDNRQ
As to the kind of experiment: Inhibition of wild-type human partial length PIK3CD (R108 to Q1044 residues) expressed in mammalian expression system at 10 uM by Kinomescan method.

Series [8] is described as follows: Lipophilicity, ChromlogD of compound at 0.5 mM at pH 6.5 by UPLC-UV analysis. The conditions noted are these: buffer, pH 6.5, 500 µM.
Series [9] concerns the target Phosphatidylinositol 4,5-bisphosphate 3-kinase catalytic subunit beta isoform (Homo sapiens) (UniProt P42338). Description: Inhibition of wild-type human partial length PIK3CB (P118 to S1070 residues) expressed in mammalian expression system at 10 uM by Kinomescan method.
Series [10] concerns the target Phosphatidylinositol 4,5-bisphosphate 3-kinase catalytic subunit gamma isoform (Homo sapiens) (UniProt P48736). As to the kind of experiment: Inhibition of wild-type human partial length PIK3CG (S144 to A1102 residues) expressed in mammalian expression system at 10 uM by Kinomescan method.
Series [11] concerns the target Phosphatidylinositol 4,5-bisphosphate 3-kinase catalytic subunit alpha isoform (Homo sapiens, UniProt P42336).
Description: Inhibition of PI3Kalpha (unknown origin) using PIP2 as substrate measured after 30 mins by TR-FRET assay

Chain of Phosphatidylinositol 4,5-bisphosphate 3-kinase catalytic subunit beta isoform (Homo sapiens) (P42338 whole entry, looked up, the tested form may be a part, canonical isoform): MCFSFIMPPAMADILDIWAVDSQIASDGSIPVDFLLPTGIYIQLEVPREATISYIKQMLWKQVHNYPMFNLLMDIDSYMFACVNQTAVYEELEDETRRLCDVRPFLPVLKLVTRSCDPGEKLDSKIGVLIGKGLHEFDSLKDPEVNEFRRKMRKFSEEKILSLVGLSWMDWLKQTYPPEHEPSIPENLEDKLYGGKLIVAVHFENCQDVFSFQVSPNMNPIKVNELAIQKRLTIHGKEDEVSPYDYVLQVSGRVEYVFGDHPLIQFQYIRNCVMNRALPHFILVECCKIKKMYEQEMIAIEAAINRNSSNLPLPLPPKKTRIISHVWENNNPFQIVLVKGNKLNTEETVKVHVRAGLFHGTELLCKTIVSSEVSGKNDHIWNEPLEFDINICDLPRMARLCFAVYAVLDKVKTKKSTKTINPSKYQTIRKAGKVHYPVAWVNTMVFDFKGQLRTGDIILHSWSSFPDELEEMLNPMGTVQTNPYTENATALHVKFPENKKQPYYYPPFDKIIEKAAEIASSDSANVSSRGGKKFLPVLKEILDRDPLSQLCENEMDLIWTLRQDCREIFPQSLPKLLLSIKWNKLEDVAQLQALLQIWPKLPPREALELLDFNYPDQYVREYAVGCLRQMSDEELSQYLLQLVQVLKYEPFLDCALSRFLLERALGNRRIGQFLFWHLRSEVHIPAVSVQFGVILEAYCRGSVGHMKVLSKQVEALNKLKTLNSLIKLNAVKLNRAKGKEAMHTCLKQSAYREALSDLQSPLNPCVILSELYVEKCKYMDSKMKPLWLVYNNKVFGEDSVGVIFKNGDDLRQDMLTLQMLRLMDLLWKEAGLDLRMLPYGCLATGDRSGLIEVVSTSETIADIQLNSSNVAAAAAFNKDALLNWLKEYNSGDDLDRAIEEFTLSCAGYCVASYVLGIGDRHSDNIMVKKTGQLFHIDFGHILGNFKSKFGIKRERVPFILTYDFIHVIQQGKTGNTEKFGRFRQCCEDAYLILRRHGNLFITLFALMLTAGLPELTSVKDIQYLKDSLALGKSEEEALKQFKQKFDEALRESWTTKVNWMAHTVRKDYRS
Chain of Phosphatidylinositol 4,5-bisphosphate 3-kinase catalytic subunit gamma isoform (Homo sapiens) (P48736 whole entry, looked up, the tested form may be a part, canonical isoform): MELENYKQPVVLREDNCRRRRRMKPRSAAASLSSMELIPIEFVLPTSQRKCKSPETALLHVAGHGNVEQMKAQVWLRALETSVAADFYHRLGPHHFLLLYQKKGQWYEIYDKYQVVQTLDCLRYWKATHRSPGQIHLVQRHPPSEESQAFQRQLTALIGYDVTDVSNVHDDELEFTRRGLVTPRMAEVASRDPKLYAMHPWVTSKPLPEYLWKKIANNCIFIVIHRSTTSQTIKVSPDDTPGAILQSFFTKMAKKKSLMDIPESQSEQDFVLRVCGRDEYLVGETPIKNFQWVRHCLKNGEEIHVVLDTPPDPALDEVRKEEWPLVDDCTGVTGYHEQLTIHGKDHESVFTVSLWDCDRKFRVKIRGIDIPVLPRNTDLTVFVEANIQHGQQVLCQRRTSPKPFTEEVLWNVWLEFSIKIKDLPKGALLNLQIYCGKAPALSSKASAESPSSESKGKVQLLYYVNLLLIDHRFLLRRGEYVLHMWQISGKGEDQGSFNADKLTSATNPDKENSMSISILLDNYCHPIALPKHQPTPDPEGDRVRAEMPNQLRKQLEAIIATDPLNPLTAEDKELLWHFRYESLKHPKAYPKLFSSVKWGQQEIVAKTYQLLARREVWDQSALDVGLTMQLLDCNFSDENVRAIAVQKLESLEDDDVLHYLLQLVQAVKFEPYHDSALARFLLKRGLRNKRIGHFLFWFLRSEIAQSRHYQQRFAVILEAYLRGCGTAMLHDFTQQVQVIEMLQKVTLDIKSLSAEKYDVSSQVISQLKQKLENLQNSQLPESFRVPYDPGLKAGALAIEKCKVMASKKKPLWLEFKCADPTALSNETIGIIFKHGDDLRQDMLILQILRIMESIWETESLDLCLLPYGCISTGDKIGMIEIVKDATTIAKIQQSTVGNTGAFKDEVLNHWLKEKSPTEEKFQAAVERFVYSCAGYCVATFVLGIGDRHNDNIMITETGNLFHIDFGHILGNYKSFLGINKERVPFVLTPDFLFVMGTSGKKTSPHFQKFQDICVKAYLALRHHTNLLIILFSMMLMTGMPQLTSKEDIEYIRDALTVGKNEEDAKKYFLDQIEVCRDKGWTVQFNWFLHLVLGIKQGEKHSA
Chain of Phosphatidylinositol 4,5-bisphosphate 3-kinase catalytic subunit alpha isoform (P42336 whole entry, canonical isoform): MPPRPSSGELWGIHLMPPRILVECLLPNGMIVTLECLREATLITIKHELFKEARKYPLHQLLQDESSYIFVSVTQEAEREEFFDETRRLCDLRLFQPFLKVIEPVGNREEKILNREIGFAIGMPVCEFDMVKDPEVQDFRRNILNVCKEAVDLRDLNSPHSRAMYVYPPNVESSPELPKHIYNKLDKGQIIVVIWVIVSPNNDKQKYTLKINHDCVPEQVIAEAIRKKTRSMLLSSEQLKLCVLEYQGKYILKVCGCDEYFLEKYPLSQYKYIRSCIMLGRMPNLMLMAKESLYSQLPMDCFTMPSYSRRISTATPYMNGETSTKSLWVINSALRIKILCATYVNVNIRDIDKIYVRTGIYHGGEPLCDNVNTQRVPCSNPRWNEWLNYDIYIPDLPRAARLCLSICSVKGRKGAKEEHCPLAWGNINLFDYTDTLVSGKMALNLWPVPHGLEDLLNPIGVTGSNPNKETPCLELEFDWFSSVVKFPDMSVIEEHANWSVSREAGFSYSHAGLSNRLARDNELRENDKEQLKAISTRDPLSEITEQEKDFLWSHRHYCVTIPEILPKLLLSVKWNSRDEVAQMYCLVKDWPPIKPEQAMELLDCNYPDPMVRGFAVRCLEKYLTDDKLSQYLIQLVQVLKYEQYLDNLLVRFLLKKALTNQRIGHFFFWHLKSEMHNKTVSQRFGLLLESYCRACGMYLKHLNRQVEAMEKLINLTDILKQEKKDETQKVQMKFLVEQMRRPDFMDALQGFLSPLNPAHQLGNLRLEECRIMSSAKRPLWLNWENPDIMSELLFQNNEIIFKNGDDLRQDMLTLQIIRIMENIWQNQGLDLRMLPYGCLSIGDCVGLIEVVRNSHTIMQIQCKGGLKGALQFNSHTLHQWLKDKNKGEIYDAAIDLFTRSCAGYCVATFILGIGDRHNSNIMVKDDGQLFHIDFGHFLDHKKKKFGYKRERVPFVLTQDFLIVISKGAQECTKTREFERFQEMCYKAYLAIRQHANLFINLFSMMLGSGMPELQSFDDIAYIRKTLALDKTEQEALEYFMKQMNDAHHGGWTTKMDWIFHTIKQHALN
Chain of Phosphatidylinositol 4-phosphate 3-kinase C2 domain-containing subunit beta (Homo sapiens) (O00750 whole entry, the tested form may be a part, canonical isoform): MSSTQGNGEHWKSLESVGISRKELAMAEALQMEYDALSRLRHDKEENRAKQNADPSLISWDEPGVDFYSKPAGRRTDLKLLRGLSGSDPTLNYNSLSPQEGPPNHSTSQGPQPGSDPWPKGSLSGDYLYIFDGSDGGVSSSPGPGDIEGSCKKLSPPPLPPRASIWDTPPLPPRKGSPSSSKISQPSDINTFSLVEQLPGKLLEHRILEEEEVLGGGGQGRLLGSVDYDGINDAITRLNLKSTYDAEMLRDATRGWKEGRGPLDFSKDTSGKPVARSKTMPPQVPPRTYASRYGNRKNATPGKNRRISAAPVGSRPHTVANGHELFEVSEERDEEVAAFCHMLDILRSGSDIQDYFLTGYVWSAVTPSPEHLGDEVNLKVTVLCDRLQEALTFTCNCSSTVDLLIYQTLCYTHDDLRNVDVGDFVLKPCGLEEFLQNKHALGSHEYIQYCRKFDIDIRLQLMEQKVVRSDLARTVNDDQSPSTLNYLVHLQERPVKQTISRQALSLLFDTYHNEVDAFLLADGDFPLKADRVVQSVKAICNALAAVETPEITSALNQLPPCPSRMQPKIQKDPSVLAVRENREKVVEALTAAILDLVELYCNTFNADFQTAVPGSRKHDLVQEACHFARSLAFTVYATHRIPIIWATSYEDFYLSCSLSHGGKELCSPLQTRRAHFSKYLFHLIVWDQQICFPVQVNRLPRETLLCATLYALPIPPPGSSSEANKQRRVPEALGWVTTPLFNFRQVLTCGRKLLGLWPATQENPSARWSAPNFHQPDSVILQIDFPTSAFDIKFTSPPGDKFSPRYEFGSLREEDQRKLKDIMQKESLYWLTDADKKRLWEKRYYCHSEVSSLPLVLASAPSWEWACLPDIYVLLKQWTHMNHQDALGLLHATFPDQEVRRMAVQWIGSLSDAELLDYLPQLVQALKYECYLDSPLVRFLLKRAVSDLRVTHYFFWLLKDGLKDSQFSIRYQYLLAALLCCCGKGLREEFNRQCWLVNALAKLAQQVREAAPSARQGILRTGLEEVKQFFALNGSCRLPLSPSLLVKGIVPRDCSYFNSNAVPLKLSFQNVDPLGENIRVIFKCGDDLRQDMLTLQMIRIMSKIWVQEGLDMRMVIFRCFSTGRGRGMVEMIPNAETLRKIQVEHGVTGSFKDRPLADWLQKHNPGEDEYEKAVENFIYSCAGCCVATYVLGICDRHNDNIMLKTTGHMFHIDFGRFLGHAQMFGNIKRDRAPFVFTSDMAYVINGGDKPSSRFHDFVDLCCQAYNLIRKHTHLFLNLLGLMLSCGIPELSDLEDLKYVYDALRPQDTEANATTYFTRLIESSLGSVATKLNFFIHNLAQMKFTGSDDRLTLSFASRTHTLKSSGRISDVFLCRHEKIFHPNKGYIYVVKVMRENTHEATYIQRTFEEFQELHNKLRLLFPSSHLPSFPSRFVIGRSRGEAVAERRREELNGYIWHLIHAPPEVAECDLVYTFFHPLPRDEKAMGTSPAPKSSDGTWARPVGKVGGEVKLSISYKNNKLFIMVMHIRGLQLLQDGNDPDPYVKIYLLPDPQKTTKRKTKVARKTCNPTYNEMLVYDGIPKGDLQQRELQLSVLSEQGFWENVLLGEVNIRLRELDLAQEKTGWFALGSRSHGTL

Consider `CC(C)n1nc(-c2ccc3oc(N)nc3c2)c2c(=O)[nH]cnc21`, for which the inhibitory constant (Ki) (in general, a measure of affinity in units of concentration, obtained from inhibition or displacement) was 0.028 µM in series [1] and > 10 µM in series [11]. Also, the results for the half-maximal inhibitory concentration (IC50) on mTORC1 and at mTORC2 were 0.03 µM and 0.13 µM, respectively. Further, in [2], the solubility kinetic at 24 h, 100 µM was 3 µM (≈ 0.931 µg/mL). The inhibition result in series [3], in [6], in [7], in [9] and in [10] was “inactive” throughout. For the same molecule, the CLH in series [4] was < 5 µL/min. In addition, in series [5], the remaining at 0.25 h, 1 µM was > 95%. The ChromlogD6.5 in series [8] is on record as 0.9.
